Test results from patent US9867879B2 (Vanderbilt University, priority 2015, dated 2018).
In brackets after ≈: the same amount, converted by molar mass. Entries after “also recorded” stand apart in the source; their conditions may differ. Like-named read-outs stand apart in the source and are kept apart here.

Key:
[1] = tested on: wild type S. aureus strain Newman; assay: Growth inhibition IC50, Newman aerobic; type: cell-based; conditions: 95% confidence interval, >60 μM considered nontoxic
Experimental: (§1) Cultures of wild type S. aureus strain Newman and ΔmenB^14 were grown in aeration tubes aerobically at 37° C. with shaking for 15-18 h. Anaerobic cultures were prepared by growing bacteria at 37° C. without shaking in an anaerobic chamber for 15-18 h. Bacteria from each condition were subcultured 1:100 into TSB containing various concentrations of compound in a 96 well plate. Aerobic wild type and ΔmenB plates are incubated aerobically at 37° C. with shaking while anaerobic plates were grown in an anaerobic chamber (Coy) at 37° C. without shaking. The absorbance at 600 nm (OD600) was determined after 9 h of growth and the fraction of growth at each compound concentration is determined by dividing the OD600 by the vehicle control (DMSO) value. IC50s were calculated using Graphpad Prism 6 and errors are reported as 95% confidence intervals.
(§2) Wild type S. aureus strain Newman was grown in an anaerobic chamber in appropriate media to ensure exclusion of terminal electron acceptors sufficient to force the bacteria to ferment. […] The arbitrary cut off point for toxicity of 60 μM was chosen as many of the compounds were not entirely soluble above this concentration.

[2] = tested on: wild type S. aureus strain Newman; assay: Growth inhibition IC50, Newman anaerobic (fermenting); type: cell-based; conditions: for IC50: Staphylococcus aureus, NEWMAN, 9 h of growth, anaerobic chamber, 95% confidence interval, >60 μM considered nontoxic; for toxicity to fermenting / anaerobic S. aureus (in words): anaerobic Newman and ΔmenB, from IC50 data
Experimental: as §1, §2

ΔmenB = assay: Growth inhibition IC50, ΔmenB; type: cell-based, S. aureus; conditions: Staphylococcus aureus, 9 h, read-out: IC50 ΔmenB
Experimental: as §1, with “intervals. […]” for “intervals.”

S. aureus [3] = assay: Heme adaptation assay; type: cell-based; conditions: subculture into 20 μM heme
Experimental: Overnight cultures of S. aureus were subcultured into 500 μL TSB containing compound in 1.5 mL tubes and incubated at 37° C. with shaking for 15 h. Bacteria from the compound treated cultures were then subcultured 1:100 into 100 μL TSB containing heme and incubated at 37° C. with shaking for 8 h. Growth was monitored by reading the OD600 on a Biotek microplate reader at the defined time intervals.
Finally, the top activators were assayed for their ability to preadapt S. aureus to heme as an indication that they can activate HssRS outside the context of a reporter assay. Pretreatment of cultures with a compound that induces HrtAB expression through activation of HssRS at subtoxic concentrations allows the bacteria to survive and grow when subcultured into a toxic concentration of heme. Pretreatment with 4 μM heme, 40 μM 1, and vehicle with 40 μM of each of the top activators were compared (excluding 2d because of toxicity). All derivatives were able to preadapt S. aureus to a toxic concentration of heme (20 μM) as well as 4 μM heme and 40 μM 1 (FIG. 5). The discrepancy between XylE assay and heme adaptation activity is likely due to the length of treatment with compound (6 h vs. 15 h).

HssRS = assay: microbe, parasite or virus in culture; type: cell-based, S. aureus; conditions: for EC50: Staphylococcus aureus, 6 h; for Efficacy: percent activation of HssRS compared to 1 at 50 μM, error one standard deviation; for HssRS activation in single point screen: 50 μM, fraction of activation relative to 1, cut-off 0.05, in words
Experimental: Previously reported strains were used.^11 Cultures grown overnight in 5 ml TSB with 10 μg mL^−1 chloramphenicol for 15-18 h were subcultured 1:100 into 0.5 mL TSB with 10 μg mL^−1 chloramphenicol containing compound and incubated at 37° C., 180 rpm for 6 h. Cells were washed and lysed as previously described. 200 μL of a 200 μM catechol solution in 100 mM potassium phosphate (pH 8.0) was added to 20 μL of lysate and the oxidation of catechol was followed by monitoring absorbance at 375 nm for 10 min. Samples were normalized to protein concentration as determined by BCA assay (Pierce).
The above XylE procedure was followed using different concentrations of compound. The data were then entered into Graphpad Prism 6 and fit to a curve to determine EC50 values.
HssRS activation. The library was screened for activation of the heme stress response as an indicator for activation of heme biosynthesis in S. aureus. We began by screening at the single point concentration of 50 μM using a previously described reporter assay (FIG. 4).^11 In this assay, Newman harboring a plasmid with the hrt promoter fused to xylE, a gene encoding a catechol oxidase, is treated with compound for six hours, the bacteria lysed, and the oxidation of catechol by XylE quantified by spectrophotometry. An increase in absorbance due to the oxidation of catechol indicates elevated levels of xylE transcription and hrt promoter activity. Results are expressed as the fraction of activation of HssRS by the compound compared to 1. […] With reference to FIG. 8, activation of HssRS by 3a and 3b at 50 μM. Activity is presented as the fraction of activation by the indicated derivative relative to 1 at 50 μM.

S. aureus [4] = conditions: earlier method, low cell density; cited from earlier work
S. aureus infection = conditions: previously reported; cited from earlier work
[5] = tested on: heme biosynthetic pathway; assay: Accumulation of heme precursor molecules; type: cell-based, S. aureus; conditions: data not shown
Description: Because ALA is the first committed precursor molecule in the heme biosynthetic pathway, if ALA is contacted with bacteria, the bacteria will generated enhanced amounts of all of the heme precursor molecules downstream of ALA.

Solubility limit = type: physicochemical
[6] = Staphylococcus aureus, NEWMAN, 9 h, read-out: IC50 Newman aerobic, 9 h of growth, aerobic

Row | SMILES | IC50 [1, 6] [µM] | IC50 [2] [µM] | IC50 (ΔmenB) [µM] | preadaptation to heme toxicity (S. aureus [3]; pretreatment 40 μM compound) | EC50 (HssRS) [µM] | EC50 (HssRS; read-out: pEC50 (converted)) [µM] | toxicity to fermenting / anaerobic S. aureus (in words) [2] | Efficacy (HssRS) [%] | further results
1 | O=C(Nc1ccccc1-c1cc(-c2ccco2)[nH]n1)c1cc(Cl)cc(Cl)c1 [Compound 1i, 3,5-dichloro-N-(2-(5-(furan-2-yl)-1H-pyrazol-3-yl)phenyl)benzamide] | > 60 | 19.6 | 8.69 | indistinguishable from vehicle |  |  |  |  | 
2 | Oc1ccccc1-c1cc(-c2ccccc2O)[nH]n1 [Compound 2d, 2,2′-(1H-pyrazole-3,5-diyl)diphenol] | 42.2 | 15.8 | 9.33 |  | 5.81 | 5.75 | anaerobic toxicity similar to 1; also recorded: exhibits both activities |  | IC50 ([1]; read-out: IC50 Newman aerobic, 9 h of growth, aerobic): 42.5 µM; preadaptation to heme toxicity (S. aureus [3]; pretreatment 20 μM compound): excellent preadaptation to heme toxicity
3 | Oc1ccccc1-c1cc(-c2ccncc2)[nH]n1 [Compound 2i] | > 60 | > 60 | > 60 | indistinguishable from vehicle |  |  |  |  | 
4 | CCCCCc1cc(-c2ccccc2O)n[nH]1 [Compound 2o, 2-(5-pentyl-1H-pyrazol-3-yl)phenol] | 48.6 | 11.6 | 13.2 | indistinguishable from vehicle |  |  | comparably toxic to 1 |  | 
5 | Oc1c(-c2cc(-c3ccco3)[nH]n2)ccc2ccccc12 [Compound 1] | > 60 | 13.5 | 1.66 |  | 11.6 | 12.6 | intermediate between the two | 100 | anaerobic toxicity (previously reported) (S. aureus [4]): toxic to S. aureus growing anaerobically
6 | Oc1ccccc1-c1cc(-c2ccccc2F)[nH]n1 [Compound 2e] | > 60 | > 60 | > 60 |  | 10.7 | 10.7 | eliminates this toxicity; also recorded: not bacteriostatic under the conditions tested here; also recorded: removes toxicity | 35.7 ± 10.1 | HssRS activation in single point screen (HssRS): comparable to 1a in activity; drop in efficacy (HssRS; compared to 1): ~70%; anaerobic toxicity (previously reported) (S. aureus [4]): anaerobic toxicity; efficacy in mouse model of S. aureus infection (S. aureus infection): efficacy in a mouse model of S. aureus infection
7 | NCC(=O)CCC(=O)O [ALA, reference compound] |  |  |  |  |  |  |  |  | accumulation of PBG [5]: results in accumulation of PBG
8 | Oc1ccccc1-c1cc(-c2cccs2)[nH]n1 [Compound 2a, 2-(5-(thiophen-2-yl)-1H-pyrazol-3-yl)phenol] | > 60 | > 60 | > 60 |  |  |  |  | 17.0 ± 2.9 | solubility (Solubility limit): ~80 µM (≈ 19.4 µg/mL)
9 | COc1ccccc1-c1cc(-c2ccccc2)[nH]n1 [Compound 3a, 3-(2-methoxyphenyl)-5-phenyl-1H-pyrazole] | > 60 | 20.8 | 24.9 | indistinguishable from vehicle |  |  | maintaining toxicity |  | HssRS activation (in words) (HssRS; summary statements, concentration not fixed): removes HssRS activity
10 | Oc1ccccc1-c1cc(-c2ccco2)[nH]n1 [Compound 1a, 2-(5-(furan-2-yl)-1H-pyrazol-3-yl)phenol] |  |  | 35.6 |  | 30.4 | 32.4 | relatively nontoxic to fermenting S. aureus | 28.2 ± 5.4 | HssRS activation in single point screen (HssRS): modest loss of activity compared to 1; IC50 ([1]; Staphylococcus aureus, NEWMAN, 9 h of growth, aerobic, read-out: IC50 Newman aerobic): > 60 µM
